Patent publication US20090304692A1, “TRIAZINE COMPOUNDS AS PI3 KINASE AND MTOR INHIBITORS” (Wyeth, priority 2008, published 2009)
pIC50: −log10 of the molar value. “And” between values parts separate entries of the source, which are not always exact repeats. Identical values can stand only once. Like-named read-outs stand apart in the source and are kept apart here.

What was measured:
human SMG-1 (hSMG-1) = human SMG-1 (hSMG-1) (Homo sapiens, UniProt Q96Q15); assay: hSMG-1 kinase assay (DELFIA); assay type: biochemical
Human mTOR (FLAG-TOR) = Human mTOR (FLAG-TOR) (Homo sapiens, UniProt P42345); assay: mTOR kinase assay (DELFIA format, purified enzyme); assay type: biochemical; details: read-out: IC50 mTOR
[1] = test system: human prostate LNCap tumor cell line; assay: In vitro cell culture growth assay (MTS), LNCap; details: Homo sapiens, LNCaP, 72 h, read-out: IC50 LNCap
PI3K-γ = PI3K-γ (Homo sapiens, UniProt P48736); assay: PI3K-gamma fluorescence polarization assay; details: read-out: IC50 PI3Kγ
PI3K-α = PI3K-α (Homo sapiens, UniProt P42336); assay: PI3K-alpha fluorescence polarization assay; details: read-out: IC50 PI3Kα
[2] = test system: human prostate PC3-mm2 tumor cell line; assay: In vitro cell culture growth assay (MTS), PC3-mm2; assay type: cell-based; details: Homo sapiens, PC3MM2, 72 h, MTS cell growth assay, three days after drug treatment, read-out: IC50 PC3-mm2
[3] = test system: human breast MDA-MB-361 tumor cell line; assay: In vitro cell culture growth assay (MTS), MDA-MB-361; assay type: cell-based; details: Homo sapiens, MDA-MB-361, 72 h; MTS cell growth assay, three days after drug treatment; read-out: IC50 MDA-MB-361

Chain of Human mTOR (FLAG-TOR) (P42345 1360-2549 limits assumed): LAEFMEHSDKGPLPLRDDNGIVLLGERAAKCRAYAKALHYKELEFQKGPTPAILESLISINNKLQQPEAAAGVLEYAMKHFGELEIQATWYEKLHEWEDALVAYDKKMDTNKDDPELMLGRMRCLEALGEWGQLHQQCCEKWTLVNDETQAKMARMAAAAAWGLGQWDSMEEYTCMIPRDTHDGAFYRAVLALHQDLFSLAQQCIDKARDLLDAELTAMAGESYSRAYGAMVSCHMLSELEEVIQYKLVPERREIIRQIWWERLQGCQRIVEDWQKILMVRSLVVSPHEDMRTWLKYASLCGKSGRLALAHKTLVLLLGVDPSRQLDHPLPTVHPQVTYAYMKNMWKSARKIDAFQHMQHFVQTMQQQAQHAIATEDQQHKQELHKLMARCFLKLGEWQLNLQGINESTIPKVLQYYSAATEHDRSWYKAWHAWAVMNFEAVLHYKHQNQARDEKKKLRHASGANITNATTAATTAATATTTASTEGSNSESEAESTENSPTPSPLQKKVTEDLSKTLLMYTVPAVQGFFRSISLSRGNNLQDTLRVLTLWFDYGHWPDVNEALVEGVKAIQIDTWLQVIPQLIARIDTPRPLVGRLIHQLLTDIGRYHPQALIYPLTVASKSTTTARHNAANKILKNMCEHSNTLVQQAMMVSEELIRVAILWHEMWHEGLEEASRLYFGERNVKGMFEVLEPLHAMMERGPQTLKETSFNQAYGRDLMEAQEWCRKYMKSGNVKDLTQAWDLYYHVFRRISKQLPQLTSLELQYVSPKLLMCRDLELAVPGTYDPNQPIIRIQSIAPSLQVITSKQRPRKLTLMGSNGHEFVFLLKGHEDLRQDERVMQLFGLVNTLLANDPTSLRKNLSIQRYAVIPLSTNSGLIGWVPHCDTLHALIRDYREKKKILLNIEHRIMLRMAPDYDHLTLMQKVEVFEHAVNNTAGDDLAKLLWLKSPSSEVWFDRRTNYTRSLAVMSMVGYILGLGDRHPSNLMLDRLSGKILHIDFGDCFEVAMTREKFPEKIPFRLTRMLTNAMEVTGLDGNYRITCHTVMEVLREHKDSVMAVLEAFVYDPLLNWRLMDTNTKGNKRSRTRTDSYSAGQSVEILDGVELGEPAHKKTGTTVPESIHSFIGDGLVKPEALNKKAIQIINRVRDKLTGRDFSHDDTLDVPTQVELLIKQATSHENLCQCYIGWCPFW
Chain of PI3K-γ (P48736 whole entry, species assumed): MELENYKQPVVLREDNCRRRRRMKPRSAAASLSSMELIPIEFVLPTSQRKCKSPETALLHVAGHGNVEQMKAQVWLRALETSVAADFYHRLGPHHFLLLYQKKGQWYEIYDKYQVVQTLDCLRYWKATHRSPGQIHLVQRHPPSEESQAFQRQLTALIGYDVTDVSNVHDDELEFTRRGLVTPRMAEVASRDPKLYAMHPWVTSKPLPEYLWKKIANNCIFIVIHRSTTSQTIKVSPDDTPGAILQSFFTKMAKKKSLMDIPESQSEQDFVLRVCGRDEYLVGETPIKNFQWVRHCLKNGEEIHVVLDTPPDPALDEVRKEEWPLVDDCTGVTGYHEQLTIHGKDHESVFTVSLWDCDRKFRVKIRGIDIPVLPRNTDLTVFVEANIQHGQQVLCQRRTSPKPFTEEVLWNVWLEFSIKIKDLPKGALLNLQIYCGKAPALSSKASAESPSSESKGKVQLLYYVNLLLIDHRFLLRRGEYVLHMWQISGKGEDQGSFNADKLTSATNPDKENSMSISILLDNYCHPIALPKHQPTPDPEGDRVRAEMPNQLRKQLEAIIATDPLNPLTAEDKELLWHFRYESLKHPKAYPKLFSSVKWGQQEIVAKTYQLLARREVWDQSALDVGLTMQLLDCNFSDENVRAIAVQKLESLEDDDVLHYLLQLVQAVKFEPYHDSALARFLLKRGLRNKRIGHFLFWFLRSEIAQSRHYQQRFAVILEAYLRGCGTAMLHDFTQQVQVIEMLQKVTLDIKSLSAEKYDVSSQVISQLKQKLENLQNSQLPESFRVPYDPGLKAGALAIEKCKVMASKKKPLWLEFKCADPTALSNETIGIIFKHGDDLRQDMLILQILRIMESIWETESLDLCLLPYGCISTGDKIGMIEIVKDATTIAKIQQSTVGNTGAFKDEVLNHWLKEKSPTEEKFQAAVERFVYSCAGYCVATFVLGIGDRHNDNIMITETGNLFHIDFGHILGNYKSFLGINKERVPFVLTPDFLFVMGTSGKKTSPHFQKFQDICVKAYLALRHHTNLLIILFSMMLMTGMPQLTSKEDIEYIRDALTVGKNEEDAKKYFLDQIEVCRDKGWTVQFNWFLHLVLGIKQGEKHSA
Chain of PI3K-α (P42336 whole entry, species assumed): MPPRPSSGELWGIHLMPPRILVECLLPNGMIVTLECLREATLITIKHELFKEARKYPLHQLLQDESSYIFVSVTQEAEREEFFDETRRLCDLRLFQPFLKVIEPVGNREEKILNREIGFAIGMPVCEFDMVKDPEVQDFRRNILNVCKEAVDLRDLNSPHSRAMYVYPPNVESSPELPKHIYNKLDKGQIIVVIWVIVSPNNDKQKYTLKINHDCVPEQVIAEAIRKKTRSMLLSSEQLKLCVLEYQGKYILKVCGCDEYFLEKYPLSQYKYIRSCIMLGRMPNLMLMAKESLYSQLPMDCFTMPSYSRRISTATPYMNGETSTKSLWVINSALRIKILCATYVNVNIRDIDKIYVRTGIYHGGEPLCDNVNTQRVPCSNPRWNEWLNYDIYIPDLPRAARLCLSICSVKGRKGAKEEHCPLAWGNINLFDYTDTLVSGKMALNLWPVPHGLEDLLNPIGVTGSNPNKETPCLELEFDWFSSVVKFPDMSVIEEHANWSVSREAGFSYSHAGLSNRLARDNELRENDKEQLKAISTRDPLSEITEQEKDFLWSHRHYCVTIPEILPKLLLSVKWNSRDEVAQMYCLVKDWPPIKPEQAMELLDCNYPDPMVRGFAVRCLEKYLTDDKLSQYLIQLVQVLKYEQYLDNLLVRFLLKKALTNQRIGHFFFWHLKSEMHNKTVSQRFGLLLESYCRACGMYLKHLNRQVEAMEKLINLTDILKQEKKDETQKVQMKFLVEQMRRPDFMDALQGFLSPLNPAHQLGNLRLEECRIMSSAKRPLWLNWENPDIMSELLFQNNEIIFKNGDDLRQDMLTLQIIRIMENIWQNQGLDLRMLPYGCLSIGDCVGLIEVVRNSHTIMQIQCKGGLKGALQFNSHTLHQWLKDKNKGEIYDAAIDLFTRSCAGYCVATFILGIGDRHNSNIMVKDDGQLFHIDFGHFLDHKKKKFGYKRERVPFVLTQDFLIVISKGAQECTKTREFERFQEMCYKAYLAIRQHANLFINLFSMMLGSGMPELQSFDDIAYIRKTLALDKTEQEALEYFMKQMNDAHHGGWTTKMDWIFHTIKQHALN
Chain of PI3K-α (P27986 whole entry partner, species assumed): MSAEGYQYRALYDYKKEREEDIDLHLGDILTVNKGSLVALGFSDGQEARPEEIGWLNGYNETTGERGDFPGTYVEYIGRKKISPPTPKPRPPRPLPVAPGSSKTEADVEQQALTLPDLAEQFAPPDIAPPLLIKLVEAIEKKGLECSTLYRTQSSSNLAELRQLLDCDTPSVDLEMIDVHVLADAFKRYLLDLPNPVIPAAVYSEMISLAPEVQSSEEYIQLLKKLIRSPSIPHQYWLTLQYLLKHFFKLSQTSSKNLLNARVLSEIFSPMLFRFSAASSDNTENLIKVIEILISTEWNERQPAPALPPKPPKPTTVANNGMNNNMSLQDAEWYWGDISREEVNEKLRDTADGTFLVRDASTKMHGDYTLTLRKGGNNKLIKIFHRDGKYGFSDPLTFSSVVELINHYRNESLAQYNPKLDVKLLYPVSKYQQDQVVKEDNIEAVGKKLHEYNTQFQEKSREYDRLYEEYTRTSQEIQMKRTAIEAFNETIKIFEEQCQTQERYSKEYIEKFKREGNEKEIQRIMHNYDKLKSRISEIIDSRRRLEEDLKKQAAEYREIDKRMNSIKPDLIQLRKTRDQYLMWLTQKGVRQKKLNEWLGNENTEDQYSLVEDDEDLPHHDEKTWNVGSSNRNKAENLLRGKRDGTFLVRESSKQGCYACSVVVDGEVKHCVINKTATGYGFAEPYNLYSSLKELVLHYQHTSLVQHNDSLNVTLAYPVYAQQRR

| SMILES | pIC50 (human SMG-1 (hSMG-1)) | pIC50 (Human mTOR (FLAG-TOR)) | pIC50 [1] | pIC50 (PI3K-γ) | pIC50 (PI3K-α) | also measured |
| --- | --- | --- | --- | --- | --- | --- |
| CC(C)(C)OC(=O)N1C[C@H]2C[C@@H]1CN2c1nc(-c2ccc(NC(=O)Nc3ccncc3)cc2)nc(N2CCOCC2)n1 [Example 256, tert-butyl(1R,4R)-5-(4-morpholin-4-yl-6-{4-[(pyridin-4-ylcarbamoyl)amino]phenyl}-1,3,5-triazin-2-yl)-2,5-diazabicyclo[2.2.1]heptane-2-carboxylate] |  | 7.49 |  | 6.74 | 7.17 | melting point: 192 °C |
| CNC(=O)Nc1ccc(-c2nc(-c3ccc(NC(=O)Nc4cccnc4)cc3)nc(N3C(C)COCC3C)n2)cc1 (stereo not drawn) [Example 463, 1-{4-[4-(3,5-dimethylmorpholin-4-yl)-6-{4-[(methylcarbamoyl)amino]phenyl}-1,3,5-triazin-2-yl]phenyl}-3-pyridin-3-ylurea] | 6.29 | 7.77 |  |  |  |  |
| O=C(Nc1ccncc1)Nc1ccc(-c2nc(N3CCOCC3)nc(N3C(CO)CCC3CO)n2)cc1 (stereo not drawn) [Example 268, 1-(4-{4-[2,5-bis(hydroxymethyl)pyrrolidin-1-yl]-6-morpholin-4-yl-1,3,5-triazin-2-yl}phenyl)-3-pyridin-4-ylurea] |  | 9.41 and 9.42 | 7.42 | 7.39 | 7.92 | pIC50 (PI3K-γ; listed as 728): 7.33; pIC50 (PI3K-α; listed as 728): 7.98; pIC50 ([2]; PC3-mm2 cells): 6.97; pIC50 [2]: 6.97; pIC50 [3]: 7.23 |
| CNC(=O)Nc1ccc(-c2nc(-c3ccc(NC(=O)Nc4ccc(C(N)=O)cc4)cc3)nc(N3CC4CCC(C3)O4)n2)cc1 [Example 464, 4-[({4-[4-{4-[(methylcarbamoyl)amino]phenyl}-6-(8-oxa-3-azabicyclo[3.2.1]oct-3-yl)-1,3,5-triazin-2-yl]phenyl}carbamoyl)amino]benzamide] | 8.52 | 9.00 |  |  |  |  |
| CC(C)Nc1nc(-c2ccc(NC(=O)Nc3ccc(CN(C)C)cc3)cc2)nc(N2C3CCC2COC3)n1 [Example 381, 1-(4-(4-(3-oxa-8-azabicyclo[3.2.1]octan-8-yl)-6-(isopropylamino)-1,3,5-triazin-2-yl)phenyl)-3-(4-((dimethylamino)methyl)phenyl)urea] |  | 8.23 | 6.85 | 5.27 | 5.53 |  |
| O=C(Nc1ccncc1)Nc1ccc(-c2nc(N3CCC(O)CC3)nc(N3CC4CCC(C3)O4)n2)cc1 [Example 116, 1-{4-[4-(4-hydroxypiperidin-1-yl)-6-(8-oxa-3-azabicyclo[3.2.1]oct-3-yl)-1,3,5-triazin-2-yl]phenyl}-3-pyridin-4-ylurea] |  | 8.57 | 7.15 | 5.64 | 5.76 |  |
| C[C@@H]1COCCN1c1nc(-c2ccc(NC(=O)Nc3ccc(CN4CCCC4)cc3)cc2)nc(N2CCOC[C@H]2C)n1 [Example 453, 1-(4-(4,6-bis((R)-3-methylmorpholino)-1,3,5-triazin-2-yl)phenyl)-3-(4-(pyrrolidin-1-ylmethyl)phenyl)urea] |  | 8.48 | 7.52 | 5.37 | 6.18 |  |
| CC(=O)N1CCN(c2nc(-c3ccc(NC(=O)Nc4ccncc4)cc3)nc(N3CC4CCC(C3)O4)n2)CC1 [Example 111, 1-{4-[4-(4-acetylpiperazin-1-yl)-6-(8-oxa-3-azabicyclo[3.2.1]oct-3-yl)-1,3,5-triazin-2-yl]phenyl}-3-pyridin-4-ylurea] |  | 8.64 | 7.24 | 5.74 | 6.94 |  |
| O=C(Nc1ccncc1)Nc1ccc(-c2nc(C3CCOCC3)nc(N3CCOCC3)n2)cc1 [Example 101, 1-{4-[4-Morpholin-4-yl-6-(tetrahydro-pyran-4-yl)-[1,3,5]triazin-2-yl]-phenyl}-3-pyridin-4-yl-urea] |  | 9.36 | 8.52 | 7.48 | 8.22 | pIC50 [2]: 7.43; pIC50 [3]: 7.49 |
| O=C(CN1CCCC1)Nc1ccc(NC(=O)Nc2ccc(-c3nc(N4C5CCC4COC5)nc(N4C5CCC4COC5)n3)cc2)cc1 [Example 375, N-(4-(3-(4-(4,6-di(3-oxa-8-azabicyclo[3.2.1]octan-8-yl)-1,3,5-triazin-2-yl)phenyl)ureido)phenyl)-2-(pyrrolidin-1-yl)acetamide] |  | 9.82 | > 9.10 | 5.59 | 7.36 |  |
| CNC(=O)Nc1ccc(-c2nc(Nc3ccc(N4CCNCC4)cc3)nc(N3CC4CCC(C3)O4)n2)cc1 [Example 325, 1-methyl-3-(4-{4-(8-oxa-3-azabicyclo[3.2.1]oct-3-yl)-6-[(4-piperazin-1-ylphenyl)amino]-1,3,5-triazin-2-yl}phenyl)urea] |  | 8.34 | 6.51 | 5.20 | 7.13 | pIC50 (PI3K-γ; listed as 354): 5.21; pIC50 (PI3K-α; listed as 354): 7.16 |
| CC(C)N1CCN(C(=O)c2ccc(NC(=O)Nc3ccc(-c4nc(C5CCOCC5)nc(N5CCOC[C@H]5C)n4)cc3)cc2)CC1 [Example 432, (R)-1-(4-(4-isopropylpiperazine-1-carbonyl)phenyl)-3-(4-(4-(3-methylmorpholino)-6-(tetrahydro-2H-pyran-4-yl)-1,3,5-triazin-2-yl)phenyl)urea] |  | 9.16 | > 9.10 | 6.32 | 7.05 |  |
| O=C(NCCF)Nc1ccc(-c2nc(Nc3ccc(N4CCNCC4)cc3)nc(N3CC4CCC(C3)O4)n2)cc1 [Example 327, 1-(2-fluoroethyl)-3-(4-{4-(8-oxa-3-azabicyclo[3.2.1]oct-3-yl)-6-[(4-piperazin-1-ylphenyl)amino]-1,3,5-triazin-2-yl}phenyl)urea] |  | 8.20 | 6.40 | 5.23 | 6.40 |  |

Second part, led by results:

| pIC50 (human SMG-1 (hSMG-1)) | pIC50 (Human mTOR (FLAG-TOR)) | pIC50 [1] | pIC50 (PI3K-γ) | pIC50 (PI3K-α) | SMILES | also measured |
| --- | --- | --- | --- | --- | --- | --- |
| 5.03 | 4.85 |  |  |  | O=C(Cc1ccc(-c2nc(N3CCOCC3)nc(N3CCOCC3)n2)cc1)Nc1cccnc1 [Example 477, 2-[4-(4,6-dimorpholin-4-yl-1,3,5-triazin-2-yl)phenyl]-N-pyridin-3-ylacetamide] |  |
| 6.89 | 7.64 | 5.55 |  |  | CNC(=O)Nc1ccc(-c2nc(-c3ccc(NC(=O)Nc4cccc(C(N)=O)c4)cc3)nc(N3C(C)COCC3C)n2)cc1 (stereo not drawn) [Example 469, 3-[({4-[4-(3,5-dimethylmorpholin-4-yl)-6-{4-[(methylcarbamoyl)amino]phenyl}-1,3,5-triazin-2-yl]phenyl}carbamoyl)amino]benzamide] |  |
| 6.71 | 8.15 | 6.00 |  |  | CNC(=O)Nc1ccc(-c2nc(-c3ccc(NC(=O)Nc4ccc(C(N)=O)cc4)cc3)nc(N3C(C)COCC3C)n2)cc1 (stereo not drawn) [Example 470, 4-[({4-[4-(3,5-dimethylmorpholin-4-yl)-6-{4-[(methylcarbamoyl)amino]phenyl}-1,3,5-triazin-2-yl]phenyl}carbamoyl)amino]benzamide] |  |
| 8.30 | 9.00 |  |  |  | CNC(=O)Nc1ccc(-c2nc(-c3ccc(NC(=O)Nc4cccc(C(N)=O)c4)cc3)nc(N3CC4CCC(C3)O4)n2)cc1 [Example 465, 3-[({4-[4-{4-[(methylcarbamoyl)amino]phenyl}-6-(8-oxa-3-azabicyclo[3.2.1]oct-3-yl)-1,3,5-triazin-2-yl]phenyl}carbamoyl)amino]benzamide] |  |
| 5.25 | 7.32 |  |  |  | c1cc(-c2nc(N3CCOCC3)nc(N3CCOCC3)n2)ccc1NC1=NCCN1 [Example 474, N-[4-(4,6-dimorpholin-4-yl-1,3,5-triazin-2-yl)phenyl]-4,5-dihydro-1H-imidazol-2-amine] |  |
| < 4.70 | 4.73 |  |  |  | c1cc(-c2nc(N3CCOCC3)nc(N3CCOCC3)n2)ccc1-c1nn[nH]n1 [Example 475, 2,4-dimorpholin-4-yl-6-[4-(2H-tetrazol-5-yl)phenyl]-1,3,5-triazine] |  |
| 7.72 | 8.30 |  |  |  | CNC(=O)Nc1ccc(-c2nc(N3CCOCC3)nc(N3CCOCC3)n2)cc1 [Example 476, 1-[4-(4,6-dimorpholin-4-yl-1,3,5-triazin-2-yl)phenyl]-3-methylurea] |  |
| 8.30 |  | 6.89 |  |  | CNC(=O)Nc1ccc(-c2nc(-c3ccc(NC(=O)Nc4ccncc4)cc3)nc(N3CC4CCC(C3)O4)n2)cc1 [Example 471, 1-methyl-3-{4-[4-(8-oxa-3-azabicyclo[3.2.1]oct-3-yl)-6-{4-[(pyridin-4-ylcarbamoyl)amino]phenyl}-1,3,5-triazin-2-yl]phenyl}urea] |  |
| 6.70 | 7.46 | 5.42 |  |  | CNC(=O)Nc1ccc(-c2nc(-c3ccc(NC(=O)Nc4ccncc4)cc3)nc(N3C(C)COCC3C)n2)cc1 (stereo not drawn) [Example 472, 1-{4-[4-(3,5-dimethylmorpholin-4-yl)-6-{4-[(methylcarbamoyl)amino]phenyl}-1,3,5-triazin-2-yl]phenyl}-3-pyridin-4-ylurea] |  |
|  | 8.66 | 5.37 | 5.04 | 5.44 | CC(C)c1nc(-c2ccc(NC(=O)Nc3ccc(-c4ccncc4)cc3)cc2)nc(N2CCOCC2)n1 [Example 489, 1-{4-[4-(1-methylethyl)-6-morpholin-4-yl-1,3,5-triazin-2-yl]phenyl}-3-(4-pyridin-4-ylphenyl)urea] |  |
| 5.44 | 7.46 |  |  |  | O=C(Nc1ccc(-c2nc(N3CCOCC3)nc(N3CCOCC3)n2)cc1)C(F)F [Example 473, N-[4-(4,6-dimorpholin-4-yl-1,3,5-triazin-2-yl)phenyl]-2,2-difluoroacetamide] |  |
